Assay results reported in article PMC4403932 (Journal of Medicinal Chemistry, 2015).
Like-named read-outs stand apart in the source and are kept apart here.

Legend:
Assay type in all cases: binding
[1] = biological target: T1, BRD4(1) (Homo sapiens, UniProt O60885); test: Isothermal titration calorimetry, BRD4(1)
T1 construct: made in house
Method: (§1) Experiments were carried out on an ITC200 titration microcalorimeter from MicroCal, LLC (GE Healthcare) equipped with a Washing module, with a cell volume of 0.2003 mL, and a 40 μL microsyringe. Experiments were carried out at 15 °C while stirring at 1000 rpm, in ITC buffer (50 mM HEPES, pH 7.5 (at 25 °C), 150 mM NaCl). The microsyringe was loaded with a solution of the protein sample (300−740 μM protein for BRD9 and BRD4(1), respectively, in ITC buffer) and was carefully inserted into the calorimetric cell which was filled with an amount of the ligand (0.2 mL, 20–25 μM in ITC buffer). The system was first allowed to equilibrate until the cell temperature reached 15 °C, and an additional delay of 60 s was applied. All titrations were conducted using an initial control injection of 0.3 μL followed by 38 identical injections of 1 μL with a duration of 2 s (per injection) and a spacing of 120 s between injections. The titration experiments were designed in such a fashion as to ensure complete saturation of the proteins before the final injection. The heat of dilution for the proteins was independent of their concentration and corresponded to the heat observed from the last injection, following saturation of ligand binding, thus facilitating the estimation of the baseline of each titration from the last injection. The collected data were corrected for protein heats of dilution (measured on separate experiments by titrating the proteins into ITC buffer) and deconvoluted using the MicroCal Origin software supplied with the instrument to yield enthalpies of binding (ΔH) and binding constants (KB) in the same fashion as that previously described in detail by Wiseman and co-workers.[66] Thermodynamic parameters were calculated using the basic equation of thermodynamics (ΔG = ΔH – TΔS = −RT ln KB, where ΔG, ΔH, and ΔS are the changes in free energy, enthalpy, and entropy of binding, respectively). In all cases a single binding site model was employed, supplied with the MicroCal Origin software package.

[2] = biological target: T2, BRD9 (Homo sapiens, UniProt Q9H8M2); test: Isothermal titration calorimetry, BRD9
T2 construct: made in house
T2 sequence (Q9H8M2 136-240 limits assumed): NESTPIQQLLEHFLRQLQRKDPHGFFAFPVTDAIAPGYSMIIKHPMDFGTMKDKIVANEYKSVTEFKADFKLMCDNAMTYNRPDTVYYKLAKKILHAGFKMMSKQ
Method: as §1

[3] = biological target: T2, BRD9; test: Protein stability (thermal) shift assay, BRD9
Method: (§2) Thermal melting experiments were carried out using an Mx3005p real time PCR machine (Stratagene). Proteins were buffered in 10 mM HEPES, pH 7.5, 500 mM NaCl and assayed in a 96-well plate at a final concentration of 2 μM in 20 μL volume. Compounds were added at a final concentration of 10 or 100 μM. SYPRO Orange (Molecular Probes) was added as a fluorescence probe at a dilution of 1 in 1000. Excitation and emission filters for the SYPRO-Orange dye were set to 465 and 590 nm, respectively. The temperature was raised with a step of 3 °C per minute from 25 to 96 °C, and fluorescence readings were taken at each interval. The temperature dependence of the fluorescence during the protein denaturation process was approximated by the equation [drawing 1] where ΔuG is the difference in unfolding free energy between the folded and unfolded state, R is the gas constant, and yF and yU are the fluorescence intensity of the probe in the presence of completely folded and unfolded protein, respectively.[65] The baselines of the denatured and native states were approximated by a linear fit. The observed temperature shifts, ΔTm^obs, were recorded as the difference between the transition midpoints of sample and reference wells containing protein without ligand in the same plate and determined by nonlinear least-squares fit. Temperature shifts (ΔTm^obs) for three independent measurements per proteins/compound are summarized in Supporting Information Table S1.

[4] = biological target: T3, BRD2(1) (Homo sapiens, UniProt P25440); test: Protein stability (thermal) shift assay, BRD2(1); conditions: for ΔTm at 10 µM: compound 10 μM, protein 2 μM, average of triplicate
T3 construct: Fragments were tested in a thermal shift assay against bromodomains of the BET subfamily; made in house
Method: as §2

[5] = biological target: T4, BRD3(2) (Homo sapiens, UniProt Q15059); test: Protein stability (thermal) shift assay, BRD3(2); conditions: compound 10 μM, protein 2 μM; average of triplicate
T4 construct: made in house
Method: as §2

[6] = biological target: T5, BRD3(1) (Homo sapiens, UniProt Q15059); test: Protein stability (thermal) shift assay, BRD3(1); conditions: compound 10 μM, protein 2 μM; average of triplicate
T5 construct: Fragments were tested in a thermal shift assay against bromodomains of the BET subfamily; made in house
Method: as §2

[7] = biological target: T6, PCAF (Homo sapiens, UniProt Q92831); test: Protein stability (thermal) shift assay, PCAF; conditions: for ΔTm at 10 µM: compound 10 μM, protein 2 μM, average of triplicate
T6 construct: representative BRDs from other structural subfamilies (family I, PCAF); made in house
T6 sequence (Q92831 723-827 limits assumed): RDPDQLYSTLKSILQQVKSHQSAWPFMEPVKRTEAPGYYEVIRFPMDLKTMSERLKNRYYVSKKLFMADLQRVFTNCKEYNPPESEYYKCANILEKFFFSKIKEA
Method: as §2

[8] = biological target: T7, CREBBP (Homo sapiens, UniProt Q92793); test: Protein stability (thermal) shift assay, CREBBP; conditions: compound 10 μM, protein 2 μM; average of triplicate; read-out: ΔTm Shift, CREBBP
T7 construct: small thermal shits (1.0–1.3 °C) for the bromodomain of CREBBP; made in house
Method: as §2

[9] = biological target: T8, BRD4(2) (Homo sapiens, UniProt O60885); test: Protein stability (thermal) shift assay, BRD4(2); conditions: compound 10 μM, protein 2 μM; average of triplicate
T8 construct: made in house
Method: as §2

[10] = biological target: T9, BRDT(1) (Homo sapiens, UniProt Q58F21); test: Protein stability (thermal) shift assay, BRDT(1); conditions: compound 10 μM, protein 2 μM; average of triplicate
T9 construct: made in house
Method: as §2

[11] = biological target: T10, BRDT(2) (Homo sapiens, UniProt Q58F21); test: Protein stability (thermal) shift assay, BRDT(2); conditions: compound 10 μM, protein 2 μM; average of triplicate; read-out: ΔTm Shift, BRDT(2)
T10 construct: made in house
Method: as §2

[12] = biological target: T1, BRD4(1); test: Protein stability (thermal) shift assay, BRD4(1); conditions: for ΔTm at 10 µM: compound 10 μM, protein 2 μM, average of triplicate, read-out: ΔTm Shift, BRD4(1)
Method: as §2

[13] = biological target: T11, BRD2(2) (Homo sapiens, UniProt P25440); test: Protein stability (thermal) shift assay, BRD2(2); conditions: compound 10 μM, protein 2 μM; average of triplicate
T11 construct: made in house
Method: as §2

[14] = biological target: T12, PB1(5) (Homo sapiens, UniProt Q86U86); test: Protein stability (thermal) shift assay, PB1(5); conditions: compound 10 μM, protein 2 μM; average of triplicate
T12 construct: made in house
Method: as §2

[15] = biological target: T13, BAZ2B (Homo sapiens, UniProt Q9UIF8); test: Protein stability (thermal) shift assay, BAZ2B; conditions: compound 10 μM, protein 2 μM; average of triplicate; read-out: ΔTm Shift, BAZ2BA
T13 construct: representative BRDs from other structural subfamilies (family I, PCAF); family III, CREBBP; family IV, BRD9; family V, BAZ2B; made in house
T13 sequence (Q9UIF8 2060-2164 limits assumed): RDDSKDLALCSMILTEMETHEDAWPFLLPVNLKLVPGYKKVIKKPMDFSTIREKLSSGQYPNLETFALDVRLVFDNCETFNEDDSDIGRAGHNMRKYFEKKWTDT
Method: as §2

[16] = system: human bromodomains (panel); test: Protein stability (thermal) shift assay, whole panel of human bromodomains; conditions: 10 μM compound
Method: as §2

[17] = ITC, 50 mM HEPES pH 7.5, 150 mM NaCl, 15 °C, reverse titration, triplicate
[18] = compound 10 μM, protein 2 μM, average of triplicate, read-out: ΔTm Shift, BRD9
[19] = ITC, 50 mM HEPES pH 7.5, 150 mM NaCl, 15 °C, reverse titration, triplicate, read-out: KD
[20] = ITC, read-out: dissociation constant
[21] = LE = ΔG/N, N number of non-hydrogen atoms

T5 sequence (Q15059 34-140 limits assumed): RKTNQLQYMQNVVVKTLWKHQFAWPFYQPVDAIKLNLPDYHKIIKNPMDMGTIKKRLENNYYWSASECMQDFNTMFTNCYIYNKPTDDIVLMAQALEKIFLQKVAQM
T12 sequence (Q86U86 653-763 limits assumed): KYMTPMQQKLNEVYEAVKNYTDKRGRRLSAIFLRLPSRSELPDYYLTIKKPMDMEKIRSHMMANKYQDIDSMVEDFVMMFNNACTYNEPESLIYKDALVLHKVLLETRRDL
T7 sequence (Q92793 1085-1192 limits assumed): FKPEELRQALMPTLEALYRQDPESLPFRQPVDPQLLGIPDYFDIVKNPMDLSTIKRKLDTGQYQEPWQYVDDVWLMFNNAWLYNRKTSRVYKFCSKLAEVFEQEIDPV
T4 sequence (Q15059 306-415 limits assumed): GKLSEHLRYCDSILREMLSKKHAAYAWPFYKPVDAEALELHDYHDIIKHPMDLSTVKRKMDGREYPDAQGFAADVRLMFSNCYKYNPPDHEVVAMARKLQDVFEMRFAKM
T3 sequence (P25440 74-180 limits assumed): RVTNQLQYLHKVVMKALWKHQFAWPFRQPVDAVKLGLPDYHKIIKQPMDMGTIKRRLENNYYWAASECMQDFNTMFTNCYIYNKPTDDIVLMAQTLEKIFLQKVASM
T11 sequence (P25440 344-453 limits assumed): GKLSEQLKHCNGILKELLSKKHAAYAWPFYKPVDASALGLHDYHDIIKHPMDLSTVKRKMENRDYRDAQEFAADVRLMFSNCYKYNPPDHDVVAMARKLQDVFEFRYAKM

| SMILES | KD [2, 17] | ΔTm at 10 µM [3, 18] [°C] | ΔTm at 10 µM [4] [°C] | ΔTm at 10 µM [5] [°C] | ΔTm at 10 µM [6] [°C] | ΔTm at 10 µM [7] [°C] | ΔTm at 10 µM [8] [°C] | ΔTm at 10 µM [9] [°C] | ΔTm at 10 µM [10] [°C] | ΔTm at 10 µM [11] [°C] | ΔTm at 10 µM [12] [°C] | ΔTm at 10 µM [13] [°C] | ΔTm at 10 µM [14] [°C] | ΔTm at 10 µM [15] [°C] | also measured |
| --- | --- | --- | --- | --- | --- | --- | --- | --- | --- | --- | --- | --- | --- | --- | --- |
| Nc1nc(Br)c2nc[nH]c2n1 [Compound 2a, 2-amino-6-bromo-9H-purine] | no binding/weak | 0.01 | – | – | – | – | – | – | – | – | – | – | – | – | KD [1, 17]: no binding/weak; ΔTm at 10 µM ([3]; thermal shift, 10 μM compound, 2 μM protein, read-out: ΔTm): 1.6 °C |
| Cn1cnc2c(Br)nc(N)nc21 [Compound 2b, 2-Amino-6-bromo-9-methylpurine] | no binding/weak | -0.0162 | -0.239 | -0.6 | 0.654 | -1.6 | 3.1 | -2.4 | -0.8 | -0.4 | 1.4 | -1.8 | 1.9 | -0.8 | – |
| Nc1nc(-c2ccccc2)c2nc[nH]c2n1 [Compound 3a, 2-Amino-6-phenyl-9H-purine] | – | -0.107 | 1.7 | 0.6 | 0.9 | 1.3 | 0.847 | 0.5 | 0.739 | 0.7 | 1.4 | 0.9 | 0.9 | 0.537 | stabilization of BRD2(1) in thermal melt assay (in words) ([4]; thermal shift, 10 μM compound): stabilized; Kd [1, 19]: 12 ± 0.743 µM; ΔG ([1]; ITC, 15 °C): –6.48 kcal/mol; N (stoichiometry) ([1]; ITC, 15 °C, reverse titration): 1.03 ± 0.049; Kd [1, 20]: 12 µM; LE (ligand efficiency) [1, 21]: 0.41; stabilization of PCAF in thermal melt assay (in words) ([7]; thermal shift, 10 μM compound): stabilized; Kd [2, 19]: 8.47 ± 0.237 µM; ΔG ([2]; ITC, 15 °C): –6.69 kcal/mol; N (stoichiometry) ([2]; ITC, 15 °C, reverse titration): 0.99 ± 0.010; Kd [2, 20]: 8.5 µM; LE (ligand efficiency) [2, 21]: 0.42; stabilization of BRD4(1) in thermal melt assay (in words) ([12]; thermal shift, 10 μM compound): stabilized; binding to BRD9 in the ΔTm assay (in words) ([3]; thermal shift, 10 μM compound): lack of affinity |
| Nc1nc(-c2ccc(OCc3ccccc3)cc2)c2nc[nH]c2n1 [Compound 3f, 2-Amino-6-(4-(benzyloxy)phenyl)-9H-purine] | – | -0.116 | 2 | 4.2 | 2.2 | 2.8 | 2.6 | -51.9 | 1.8 | 3.2 | 3.5 | 3.8 | 1.5 | – | binding to the bromodomain panel in the ΔTm assay (in words) [16]: showed binding toward all BRDs |
